In US9271936B2, “Method for forming mesoporous silica nanoparticles, mesoporous silica nanoparticles, and applications thereof” (UNIVERSITY OF MARYLAND, priority 2008, dated 2016):

What was measured:
[1] = Loading (uptake) of target material into MSN, UV-Vis spectroscopy; type: physicochemical
[2] = cited from earlier work
[3] = Release of target material from MSN, UV-Vis spectroscopy; conditions: after subsequent pH decrease to approximately pH 5.0

uptake into MSN [1]: approximately 3 ug/mg MSN | amount released per mg of MSN at equilibrium [3]: about 7.5 ug per mg of MSN
Structure (SMILES): COc1cccc2c1C(=O)c1c(O)c3c(c(O)c1C2=O)C[C@@](O)(C(=O)CO)C[C@@H]3O[C@H]1C[C@H](N)[C@H](O)[C@H](C)O1 [doxorubicin]
pKa [2]: ~7
